From US10617734B2, “STAT3 and ERK signal pathway inhibitor comprising mogrosides and analogs thereof” (BEIJING UNIVERSITY OF AGRICULTURE, priority 2014, dated 2020)

Columns and labels:
[1] = test system: phosphorylated STAT3 (P-STAT3, Tyr705); assay: Western Blotting of phosphorylated STAT3 in U937 cells; format: cell-based; conditions: 10 μmol/L, 24 hours
Protocol: (§1) The inhibition of the STAT3 and ERK signal pathways achieved by Mogroside I E1, Mogroside II A2 and mogrol was detected by Western Blotting, specifically:
(§2) Group 1: histiocytic lymphoma U937 cells (1×10^6 cells/well) were inoculated into a 6-well culture plate for staying overnight, and 0 and 10 μmol/L of Mogroside I E1, Mogroside II A2 and mogrol were added respectively, and the culture was continued for 24 hours;
(§3) After the termination of the cell culture, the culture solution was removed, and the residue was washed with PBS (0.01 mol/L, pH 7.4), and then a cell lysis solution containing protease inhibitors was added at an amount of 50 μl/well, and the mixture was placed in an ice bath for lysis at 4° C. for 30 min and then centrifuged at 14000 r/min for 10 min, and then total proteins were obtained from the supernatant;
(§4) The protein concentrations were measured with bovine serum albumin (BSA) as the standard. 50 μg of the total proteins was separated by polyacrylamide gel electrophoresis with 12% […], electrophoretically transferred to a PVDF membrane (polyvinylidene fluoride membrane), and blocked for 1 h by 5% of skim milk (containing 0.1% of Tween 20), and then antibodies p-STAT3 (Tyr705) and p-Erk1/2 as well as β-actin were added, and the primary antibody was incubated at 4° C. overnight (β-actin was used as reference in loading amount); the membrane was washed for 3 times with TBS-T, 5 min each time; secondary antibody marked by horseradish peroxidase (HRP) was added for incubation at room temperature for 1 h, the membrane was washed for 3 times with a wash solution (TBS-T), 10 min each time, and then ECL was added for incubation in dark for 5 min, and subsequently, a fluorescence imaging analyzer was used for image development and scanning analysis, and the results of Western Blotting detection are shown in FIGS. 4 to 6.

[2] = test system: phosphorylated ERK1/2 (P-ERK1/2); assay: Western Blotting of phosphorylated ERK1/2 in U937 cells; format: cell-based; conditions: 10 μmol/L, 24 hours
Protocol: as §1, §2, §3, §4

[3] = test system: phosphorylated STAT3 (P-STAT3, Tyr705); assay: Western Blotting of phosphorylated STAT3 in A875 cells; format: cell-based, human; conditions: melanoma A875 cells, 10 μmol/L, 24 hours
Protocol: as §1
(§5) Group 2: human melanoma A875 cells (1×10^6 cells/well) were inoculated into a 6-well culture plate for staying overnight, and 0 and 10 μmol/L of Mogroside I E1, Mogroside II A2 and mogrol were added respectively, and the culture was continued for 24 hours;
as §3, §4

[4] = test system: phosphorylated ERK1/2 (P-ERK1/2); assay: Western Blotting of phosphorylated ERK1/2 in A875 cells; format: cell-based, human; conditions: melanoma A875 cells, 10 μmol/L, 24 hours
Protocol: as §1, §5, §3, §4

[5] = test system: phosphorylated STAT3 (P-STAT3, Tyr705); assay: Western Blotting of phosphorylated STAT3 in K562 cells; format: cell-based, human; conditions: leukemia cells K562, 10 μmol/L, 24 hours
Protocol: as §1
(§6) Group 3: leukemia cells K562 (1×10^6 cells/well) were inoculated into a 6-well culture plate for staying overnight, and 0 and 10 μmol/L of Mogroside I E1 Mogroside II A2 and mogrol were added respectively, and the culture was continued for 24 hours;
as §3, §4

[6] = test system: phosphorylated ERK1/2 (P-ERK1/2); assay: Western Blotting of phosphorylated ERK1/2 in K562 cells; format: cell-based, human; conditions: leukemia cells K562, 10 μmol/L, 24 hours
Protocol: as §1, §6, §3, §4

[7] = test system: human melanoma A875 cells; assay: MTT colorimetric experiment, cell growth inhibition; format: cell-based; conditions: melanoma A875 cells, 0.1, 1, 10, 100, 200 and 250 μmol/L, MTT after 24 h
Protocol: (§7) MTT colorimetric experiments were performed after 24 h, respectively: prior to the finish of each experiment, 15 μl of MTT solution in a concentration of 5 mg/ml was added to each well, and the culture was continued in dark at 37° C. for 4 h, then 150 μl of DMSO was added to each well and oscillating in a shaker for 10 min, and then the residue was placed in a microplate reader to detect the optical density OD) at 490 nm, and the inhibition rate was calculated according to the following formula: cell growth inhibition rate (control group OD490—test group OD490)/control group OD490×100%.

lymphoma U937 cells = assay: as above; format: cell-based; conditions: U937 cells, 0.1, 1, 10, 100, 200 and 250 μmol/L, MTT after 24 h
Protocol: as §7

leukemia cells K562 = assay: as above; format: cell-based, human; conditions: leukemia cells K562, 0.1, 1, 10, 100, 200 and 250 μmol/L, MTT after 24 h
Protocol: as §7

SMILES | expression level of phosphorylated STAT3 (P-STAT3) [1] | expression level of phosphorylated ERK1/2 (P-ERK1/2) [2] | expression level of phosphorylated STAT3 (P-STAT3) [3] | expression level of phosphorylated ERK1/2 (P-ERK1/2) [4] | expression level of phosphorylated STAT3 (P-STAT3) [5] | expression level of phosphorylated ERK1/2 (P-ERK1/2) [6] | cell growth inhibition rate [7] | cell growth inhibition rate (lymphoma U937 cells) | cell growth inhibition rate (leukemia cells K562)
C[C@H](CC[C@@H](O)C(C)(C)O)[C@H]1CC[C@@]2(C)[C@@H]3CC=C4[C@@H](CC[C@H](O[C@@H]5O[C@H](CO)[C@@H](O)[C@H](O)[C@H]5O)C4(C)C)[C@]3(C)[C@H](O)C[C@]12C [Mogroside I E1] | significantly decreased | significantly decreased | significantly decreased | significantly decreased | significantly decreased | significantly decreased | inhibitory effect on the proliferation | inhibitory effect on the proliferation | inhibitory effect on the proliferation
C[C@H](CC[C@@H](O)C(C)(C)O)[C@H]1CC[C@@]2(C)[C@@H]3CC=C4[C@@H](CC[C@H](O[C@@H]5O[C@H](CO[C@@H]6O[C@H](CO)[C@@H](O)[C@H](O)[C@H]6O)[C@@H](O)[C@H](O)[C@H]5O)C4(C)C)[C@]3(C)[C@H](O)C[C@]12C [Mogroside II A2] | significantly decreased | significantly decreased | significantly decreased | significantly decreased | significantly decreased | significantly decreased | inhibitory effect on the proliferation | inhibitory effect on the proliferation | inhibitory effect on the proliferation
